{"source": "paper PMC11218446", "about": "“Antibacterial efficacy and membrane mechanism of action of the Serratia-derived non-ionic lipopeptide, serrawettin W2-FL10” (Microbiology Spectrum, 2024)", "key": {"[1]": {"tested_on": "tested Gram-negative bacterial strains", "assay": "Broth microdilution assay (OD 600 nm)", "format": "cell-based", "details": "results not shown", "excerpt": "The S. marcescens NP2 strain was previously isolated from a wastewater treatment plant sample and the identity of the strain was confirmed via molecular typing ([47]). The S. marcescens NP2 strain was deposited in the South African Rhizobium Culture Collection (SARCC no. 3157). The test bacterial strains used in the broth microdilution assay included L. monocytogenes ATCC 13932, E. faecalis ATCC 7080, S. aureus ATCC 25923, S. aureus RN4220, MRSA Xen 30, E. faecalis S1, E. faecium S1, B. subtilis ATCC 6051, E. coli ATCC 417371, P. aeruginosa ATCC 27853, K. pneumoniae ATCC 13383, A. baumannii ATCC 19606, and S. typhimurium ATCC 14028. […]\nAll the cultures (inoculated into 5 mL MHB, or 5 mL TSB for Listeria and Enterococcus strains) were incubated at 37°C to reach an optical density (OD) of 0.4 at 600 nm (∼10^7 CFU/mL). […] Following incubation, the absorbance was measured using a microtiter plate reader at 600 nm. […]\nThe “top” and “bottom” are the maximum and minimum inhibition responses, respectively, for a particular set of dose-response data, while the activity slope is related to the Hill slope of a sigmoidal binding curve ([16]). […] In addition to the MIC and IC50 inhibition parameters, an inhibition concentration factor (ICF), was calculated as outlined in Rautenbach et al. ([17]). […]"}, "[2]": {"tested_on": "Chinese hamster ovarian (CHO) cell line", "assay": "Mammalian cell cytotoxicity, MTT assay", "details": "CHO cells", "procedure": "(§1) To determine the biocompatibility of W2-FL10 as a potential therapeutic agent, the in vitro cytotoxicity of W2-FL10 against the CHO cell line ([50]) was determined over 48 h by the Drug Discovery and Development Centre at the University of Cape Town, as previously described by Mosmann ([51]). Briefly, W2-FL10 was prepared to a 10 mM stock solution in 100% DMSO and dilutions were prepared in growth media. The CHO cell line density of 10^5 cells/well in 96-well plates and allowed to attach for 24 h. Thereafter, the compound was added to the 96-well plates at various concentrations from 50 µM down to 16 nM and incubated for a further 48 h. At 44 h, MTT was added to the wells, and the plates were read 4 h later at 540 nm on a spectrophotometer. […] Finally, cell inhibition was plotted against concentration and the 50% lethal concentration (LC50) parameter and a minimum lethal concentration (MLC90) were obtained as described for the dose responses against bacterial targets above (equation 1)."}, "[3]": {"assay": "Mammalian cell cytotoxicity, MTT assay", "details": "CHO cells", "procedure": "as §1"}, "[4]": {"tested_on": "S. aureus RN4220", "assay": "Membrane depolarization assay, DiSC3(5)", "format": "cell-based, Staphylococcus aureus", "procedure": "The membrane depolarization capability (ability to disrupt membrane potential) of the W2-FL10 against S. aureus ATCC 25923, S. aureus RN4220, or MRSA Xen 30 was determined using the voltage-sensitive fluorescent probe, DiSC3(5) ([20]). Briefly, black 96-well plates were prepared with W2-FL10 at 12.5 µg/mL and 25 µg/mL, while 4 and 8 µg/mL of melittin were used as a positive depolarization control, and the plates were air dried as described in the “Antibacterial activity: broth microdilution assay” section. The S. aureus strains were inoculated into MHB and grown to the mid-log phase (OD600 of 0.5–0.6). Cells were harvested by centrifugation at 3,000 rpm for 10 min and resuspended in HEPES buffer (5 mM, pH 7.4, containing 20 mM glucose; 100 mM KCl) to OD600 of 0.05. Thereafter, DiSC3(5) (stock concentration of 400 µM in 100% DMSO) was added to the cell suspension to a final concentration of 0.4 µM, and cells were incubated in the dark at room temperature for 40 min. Cell suspensions (100 µL) were then dispensed into the wells of the black 96-well plate. Sterile broth and the OD-adjusted inoculum with DiSC3(5) were included as a non-fluorescent control, sterile broth with DiSC3(5) was included as a sterility control, and melittin was included as membrane depolarization control. All the tests were performed in triplicate, with independent duplicates. Fluorometric readings of the plate were conducted at 1 min intervals over 12 min (readings began 60 s after cells were added to the plates) using a Tecan Spark at 622 nm excitation wavelength and 670 nm emission wavelength. Statistical comparison of the kinetic trends elicited by the treatment with peptide with the control (cells alone) was done using two-way ANOVA with Bonferroni’s post hoc test."}}, "note": "Several values for one entry are separate records, joined by “and”; a condition that tells them apart may be missing. Equal values may be shown once. Marks after values point to notes of the source that are not given here."}
{"compound": "CCCCCCCC1CC(=O)N[C@H](CC(C)C)C(=O)N[C@@H](CO)C(=O)N[C@@H]([C@@H](C)O)C(=O)N[C@H](Cc2ccccc2)C(=O)N[C@@H](CC(C)C)C(=O)O1", "note": "(stereo partly drawn) [W2-FL10, serrawettin W2-FL10]", "values": [{"measurement": "MIC", "setting": "[1]", "result": "> 125", "unit": "µg/mL"}, {"measurement": "MLC, minimum lethal concentration", "setting": "[2]; MTT, 48 h, MLC90", "result": "36.6 (50.0)^e μg/mL"}, {"measurement": "ICF (MIC/IC50)^2", "setting": "[2]; from MLC and LC50", "result": 1.6}, {"measurement": "CC50 at 48 h", "setting": "[3]", "result": "40 µM and 29 µg/mL"}, {"measurement": "increase in DiSC3(5) fluorescent signal, in words", "setting": "[4]; 12.5 µg/mL, up to 720 s (Fig. 4C)", "result": "negligible"}, {"measurement": "time at which the DiSC3(5) fluorescent signal doubled", "setting": "[4]; 25 µg/mL", "result": 480, "unit": "s"}]}
